# Source: patent EP0284935A1, “5-Substituted quinolone- and naphthyridone carboxylic acid derivatives” (BAYER AG, priority 1987, dated 1988)
# Tests used:
# Assay in all cases: Agar dilution test, minimum inhibitory concentration
# Assay type in all cases: cell-based
# E.coli Neumann = settings: Escherichia coli; test strain E.coli Neumann; Isosensitest-Agar (Oxoid), inoculum ca. 10^4 germs per inoculation point; read-out: Minimale Hemmkonzentrationen
# E.coli 455/7 = settings: Escherichia coli; test strain E.coli 455/7; Isosensitest-Agar (Oxoid), inoculum ca. 10^4 germs per inoculation point; read-out: Minimale Hemmkonzentrationen
# E.coli A261 = settings: Escherichia coli; test strain E.coli A261; Isosensitest-Agar (Oxoid), inoculum ca. 10^4 germs per inoculation point; read-out: Minimale Hemmkonzentrationen
# Klebsiella 63 = settings: test strain Klebsiella 63; Isosensitest-Agar (Oxoid), inoculum ca. 10^4 germs per inoculation point; read-out: Minimale Hemmkonzentrationen
# Klebsiella 8085 = settings: test strain Klebsiella 8085; Isosensitest-Agar (Oxoid), inoculum ca. 10^4 germs per inoculation point; read-out: Minimale Hemmkonzentrationen
# Proteus mir. 8223 = settings: test strain Proteus mir. 8223; Isosensitest-Agar (Oxoid), inoculum ca. 10^4 germs per inoculation point; read-out: Minimale Hemmkonzentrationen
# Proteus vulg. 1017 = settings: test strain Proteus vulg. 1017; Isosensitest-Agar (Oxoid), inoculum ca. 10^4 germs per inoculation point; read-out: Minimale Hemmkonzentrationen
# Morg. morg. 932 = settings: test strain Morg. morg. 932; Isosensitest-Agar (Oxoid), inoculum ca. 10^4 germs per inoculation point; read-out: Minimale Hemmkonzentrationen
# Morg. morg. 11006 = settings: test strain Morg. morg. 11006; Isosensitest-Agar (Oxoid), inoculum ca. 10^4 germs per inoculation point; read-out: Minimale Hemmkonzentrationen
# Providencia 12012 = settings: test strain Providencia 12012; Isosensitest-Agar (Oxoid), inoculum ca. 10^4 germs per inoculation point; read-out: Minimale Hemmkonzentrationen
# Providencia 12052 = settings: test strain Providencia 12052; Isosensitest-Agar (Oxoid), inoculum ca. 10^4 germs per inoculation point; read-out: Minimale Hemmkonzentrationen
# Serratia 16040 = settings: test strain Serratia 16040; Isosensitest-Agar (Oxoid), inoculum ca. 10^4 germs per inoculation point; read-out: Minimale Hemmkonzentrationen
# Staph. FK 422 = settings: test strain Staph. FK 422; Isosensitest-Agar (Oxoid), inoculum ca. 10^4 germs per inoculation point; read-out: Minimale Hemmkonzentrationen
# Staph. 1756 = settings: test strain Staph. 1756; Isosensitest-Agar (Oxoid), inoculum ca. 10^4 germs per inoculation point; read-out: Minimale Hemmkonzentrationen
# Staph. 133 = settings: test strain Staph. 133; Isosensitest-Agar (Oxoid), inoculum ca. 10^4 germs per inoculation point; read-out: Minimale Hemmkonzentrationen
# Enteroc. 27101 = settings: test strain Enteroc. 27101; Isosensitest-Agar (Oxoid), inoculum ca. 10^4 germs per inoculation point; read-out: Minimale Hemmkonzentrationen
# Enteroc. 9790 = settings: test strain Enteroc. 9790; Isosensitest-Agar (Oxoid), inoculum ca. 10^4 germs per inoculation point; read-out: Minimale Hemmkonzentrationen
# Pseudomonas Walter = settings: test strain Pseudomonas Walter; Isosensitest-Agar (Oxoid), inoculum ca. 10^4 germs per inoculation point; read-out: Minimale Hemmkonzentrationen
# Pseudomonas Ellsworth = settings: test strain Pseudomonas Ellsworth; Isosensitest-Agar (Oxoid), inoculum ca. 10^4 germs per inoculation point; read-out: Minimale Hemmkonzentrationen
compound,measurement,setting,value
"CN1CCN(c2c(F)c(N)c3c(=O)c(C(=O)O)cn(C4CC4)c3c2F)CC1 [Beispiel 19, 5-Amino-1-cyclopropyl-6,8-difluor-1,4-dihydro-7-(4-methyl-1-piperanyl)-4-oxo-3-chinolincarbonsäure]",MIC,E.coli Neumann,0.03 µg/mL
same,MIC,E.coli 455/7,1 µg/mL
same,MIC,E.coli A261,0.25 µg/mL
same,MIC,Klebsiella 63,0.03 µg/mL
same,MIC,Klebsiella 8085,0.03 µg/mL
same,MIC,Proteus mir. 8223,0.25 µg/mL
same,MIC,Proteus vulg. 1017,0.06 µg/mL
same,MIC,Morg. morg. 932,0.03 µg/mL
same,MIC,Morg. morg. 11006,0.06 µg/mL
same,MIC,Providencia 12012,0.06 µg/mL
same,MIC,Providencia 12052,1 µg/mL
same,MIC,Serratia 16040,4 µg/mL
same,MIC,Staph. FK 422,0.03 µg/mL
same,MIC,Staph. 1756,0.06 µg/mL
same,MIC,Staph. 133,0.06 µg/mL
same,MIC,Enteroc. 27101,0.25 µg/mL
same,MIC,Enteroc. 9790,0.25 µg/mL
same,MIC,Pseudomonas Walter,0.5 µg/mL
same,MIC,Pseudomonas Ellsworth,0.06 µg/mL
